Drawing on patent publication US20250340516A1, “Isoquinolinones as Modulators of POLRMT” (Pretzel Therapeutics, Inc., priority 2024, published 2025), this text covers IC50 for 24 compounds.

The assay has as its target POLRMT (Homo sapiens (Human), UniProt O00411). As to the kind of experiment: homogeneous TR-FRET assay of POLRMT inhibition (mitochondrial transcription, 407 bp RNA product). Format: biochemical. The following applies: 7.5 nM POLRMT, 15 nM TFB2M, 30 nM TFAM, 0.5 nM DNA template, 500 μM NTPs, 37° C., 60 minutes, * = aggregation of data sets, read-out: IC50 values for isoquinolinone compounds. The protocol:
The inhibitory activity of the compounds of the present invention against POLRMT were determined by assays based on Bergbrede, T., et al., “An adaptable high-throughput technology enabling the identification of specific transcription modulators,” SLAC Discov., 22, 378-386 (2017).
The ability of some compounds of the present invention to inhibit POLRMT were determined in a homogeneous TR-FRET Assay using high-throughput screening in a 384-well plate format. This method is used to monitor the activity of mitochondrial transcription through measurement of its product, a 407 bp long RNA transcript. Detection of the product is facilitated by hybridization of two DNA-oligonucleotide probes to specific and adjacent sequences within the RNA product sequence. Upon annealing of the probes, two fluorophores are coupled directly to an acceptor nucleotide probe (ATTO647, 5′), or introduced via a coupled streptavidin with a biotinylated donor nucleotide probe (Europium cryptate) that is brought into sufficient proximity to serve as a fluorescence-donor-acceptor pair. Thus, a FRET signal at 665 nm is generated upon excitation at 340 nm.
Proteins used as transcription factors (POLRMT: NP_005026.3, TFAM: NP_003192.1, TFB2M: NP_071761.1) are diluted from their stocks to working concentrations of 1 μM, 20 μM and 4 μM respectively, in a dilution buffer containing 20 mM Tris-HCl (pH 8.0), 200 mM NaCl, 10% (v/v) glycerol, 1 mM Dithiothreitol (DTT), 0.5 mM EDTA.
DNA template is a pUC18 plasmid with the mitochondrial light strand promotor sequence (1-477) cloned between HindIII and BamHI sites. The DNA template is restriction linearized proximal to the promotor 3′-end (pUC-LSP).
The reaction mixture (10 uL) containing 7.5 nM POLRMT, 15 nM of TFB2M, 30 nM of TFAM, 0.5 nM of DNA template and 500 μM nucleotide triphosphate mix (NTPs) in a reaction buffer (containing 10 mM Tris-HCl (pH 7.5), 10 mM MgCl2, 40 mM NaCl, 10 mM DTT, 0.005% (w/v) Tween-20, 160 units/ml Rnase inhibitor and 0.1 mg/mL BSA) are dispensed to compounds in microplates, using a Thermo Multidrop® dispenser, and incubated at 37° C. in a VWR INCU-Line incubator for 60 minutes after mixing. No nucleotide triphosphate mix is added to negative control samples. Microplates with compounds to be tested in the assay are prepared from 10 mM compound stocks in 100% DMSO, equal amounts of DMSO without any compound are added to positive control and negative control samples.
During the incubation, a mix of the detection reagents is prepared in a buffer such that the enzymatic reaction is terminated due to chelating of Mg-ions and increased ionic strength, containing 50 mM Tris-HCl (pH 7.5), 700 mM NaCl, 20 mM EDTA, and 0.01% (w/v) Tween-20. Europium-streptavidin is pre-incubated with a 200-fold molar excess of a random sequence oligonucleotide to block unspecific binding of oligo, for two hours at ambient temperature in the dark. Afterwards, the blocked Europium-streptavidin is kept on ice until use.
At the end of the enzymatic reaction time, 5 μL detection oligo mix in the detection buffer is added, and assay plates are mixed and kept at ambient temperature for one hour, protected from light. The concentration of the Acceptor nucleotide oligo (e.g., ATTO647N-5′-[…]-3′ (SEQ ID NO: 1)) and Donor nucleotide oligo (e.g., bio-5′-AACACATCTCT(-bio)GCCAAACCCCA-bio-3′ (SEQ ID NO: 2)) in each assay well is 1 nM, and 3 nM, respectively.
After incubation with oligo mix, 5 μL of pre-blocked Europium-streptavidin reagent is dispensed to each assay well, assay plates are again mixed and kept at ambient temperature for one hour, protected from light.
The generated signal is measured with BMG Pherastar microtiter plate reader with a TRF light unit, using excitation at 340 nm, an integration time of 200 μs, and a delay time of 100 μs, before detection at 620 nm and 665 nm. The ratio of donor- and acceptor-fluorescence is used as a measure of the generated transcript product (i.e. enzymatic activity).

A value given as a limit tells only on which side of the number the result lay.

Chain of POLRMT (O00411 42-1230): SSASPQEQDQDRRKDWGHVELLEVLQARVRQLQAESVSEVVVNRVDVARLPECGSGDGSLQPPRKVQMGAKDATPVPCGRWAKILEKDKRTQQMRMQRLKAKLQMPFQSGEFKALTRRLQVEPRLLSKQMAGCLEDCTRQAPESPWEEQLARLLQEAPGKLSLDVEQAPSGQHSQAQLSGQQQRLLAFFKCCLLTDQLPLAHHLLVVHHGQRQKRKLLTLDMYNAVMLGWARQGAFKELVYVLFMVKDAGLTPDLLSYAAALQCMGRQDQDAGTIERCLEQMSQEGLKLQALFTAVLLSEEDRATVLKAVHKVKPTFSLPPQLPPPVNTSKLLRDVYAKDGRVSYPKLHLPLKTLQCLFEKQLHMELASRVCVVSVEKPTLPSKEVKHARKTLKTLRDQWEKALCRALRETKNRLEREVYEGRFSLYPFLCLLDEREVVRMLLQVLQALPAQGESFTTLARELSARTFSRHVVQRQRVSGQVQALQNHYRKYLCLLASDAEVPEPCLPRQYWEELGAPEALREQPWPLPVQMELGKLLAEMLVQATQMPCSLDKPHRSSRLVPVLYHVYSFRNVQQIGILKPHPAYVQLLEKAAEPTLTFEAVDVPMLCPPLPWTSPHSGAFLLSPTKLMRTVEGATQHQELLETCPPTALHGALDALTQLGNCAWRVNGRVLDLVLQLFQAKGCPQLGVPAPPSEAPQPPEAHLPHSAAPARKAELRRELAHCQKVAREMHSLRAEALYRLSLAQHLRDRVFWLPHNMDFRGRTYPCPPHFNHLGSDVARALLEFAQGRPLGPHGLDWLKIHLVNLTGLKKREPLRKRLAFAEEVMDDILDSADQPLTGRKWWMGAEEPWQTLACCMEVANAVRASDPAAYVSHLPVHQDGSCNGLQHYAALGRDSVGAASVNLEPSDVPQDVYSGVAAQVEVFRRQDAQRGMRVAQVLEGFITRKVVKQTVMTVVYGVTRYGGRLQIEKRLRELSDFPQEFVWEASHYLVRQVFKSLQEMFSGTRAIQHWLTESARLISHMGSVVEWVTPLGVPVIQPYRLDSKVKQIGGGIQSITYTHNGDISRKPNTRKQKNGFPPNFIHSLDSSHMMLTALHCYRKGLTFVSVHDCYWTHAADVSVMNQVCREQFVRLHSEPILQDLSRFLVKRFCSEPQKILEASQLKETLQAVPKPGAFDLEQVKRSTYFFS

On to `CCN1CCN(C(=O)[C@@H](C)Oc2ccc3c(-c4ccccc4C)c[nH]c(=O)c3c2)CC1` [Example 18, (R)-7-((1-(4-ethylpiperazin-1-yl)-1-oxopropan-2-yl)oxy)-4-(o-tolyl)isoquinolin-1(2H)-one], for which the IC50 (in general, the concentration that gives 50% inhibition) was found to be 200 nM.

Turning to `CC(=O)NCCN(C)C(=O)[C@@H](C)Oc1ccc2c(-c3ccccc3C)c[nH]c(=O)c2c1` [Example 19, (R)-N-(2-acetamidoethyl)-N-methyl-2-((1-oxo-4-(o-tolyl)-1,2-dihydroisoquinolin-7-yl)oxy)propanamide], the 50% inhibitory concentration (IC50) was determined as 2000 nM. The figure for `Cc1cccc(C)c1-c1c[nH]c(=O)c2cc(O[C@H](C)C(=O)N3CCC(C)(C(=O)O)CC3)ccc12` [Example 20, (R)-1-(2-((4-(2,6-dimethylphenyl)-1-oxo-1,2-dihydroisoquinolin-7-yl)oxy)propanoyl)-4-methylpiperidine-4-carboxylic acid] is 100 nM; for `Cc1ccccc1-c1c[nH]c(=O)c2cc(O[C@H](C)C(=O)N[C@H](C)C(N)=O)ccc12` [Example 21, (R)-N-((R)-1-amino-1-oxopropan-2-yl)-2-((1-oxo-4-(o-tolyl)-1,2-dihydroisoquinolin-7-yl)oxy)propanamide] it is 200 nM. In the case of `CC(=O)N(C)CCN(C)C(=O)[C@@H](C)Oc1ccc2c(-c3ccccc3C)c[nH]c(=O)c2c1` [Example 22, (R)-N-methyl-N-(2-(N-methylacetamido)ethyl)-2-((1-oxo-4-(o-tolyl)-1,2-dihydroisoquinolin-7-yl)oxy)propanamide] it was 2000 nM; in that of `COCCN1CCN(C(=O)[C@@H](C)Oc2ccc3c(-c4ccccc4C)c[nH]c(=O)c3c2)CC1=O` [Example 23, (R)-7-((1-(4-(2-methoxyethyl)-3-oxopiperazin-1-yl)-1-oxopropan-2-yl)oxy)-4-(o-tolyl)isoquinolin-1(2H)-one], 300 nM; in that of `Cc1ccccc1-c1c[nH]c(=O)c2cc(O[C@@H](C)C(=O)N[C@H](C)C(N)=O)ccc12` [Example 24, (S)-N-((R)-1-amino-1-oxopropan-2-yl)-2-((1-oxo-4-(o-tolyl)-1,2-dihydroisoquinolin-7-yl)oxy)propanamide], 37000 nM. For `COC(=O)CN(C)C(=O)[C@H](C)Oc1ccc2c(-c3ccccc3C)c[nH]c(=O)c2c1` [Example 25, methyl (S)-N-methyl-N-(2-((1-oxo-4-(o-tolyl)-1,2-dihydroisoquinolin-7-yl)oxy)propanoyl)glycinate], the IC50 was > 100000 nM.

For the compound `Cc1ccccc1-c1c[nH]c(=O)c2cc(O[C@@H](C)C(=O)N(C)CC(=O)O)ccc12` [Example 26, (S)-N-methyl-N-(2-((1-oxo-4-(o-tolyl)-1,2-dihydroisoquinolin-7-yl)oxy)propanoyl)glycine], the half-inhibitory concentration (IC50) was found to be 43000 nM. The figure for `COCCN1C2CCC1CN(C(=O)[C@@H](C)Oc1ccc3c(-c4ccccc4C)c[nH]c(=O)c3c1)C2` [Example 27, 7-(((2R)-1-(8-(2-methoxyethyl)-3,8-diazabicyclo[3.2.1]octan-3-yl)-1-oxopropan-2-yl)oxy)-4-(o-tolyl)isoquinolin-1(2H)-one] is 100 nM; for `CC(=O)N[C@H]1CCCN(C(=O)[C@@H](C)Oc2ccc3c(-c4ccccc4C)c[nH]c(=O)c3c2)C1` [Example 28, N-((S)-1-((R)-2-((1-oxo-4-(o-tolyl)-1,2-dihydroisoquinolin-7-yl)oxy)propanoyl)piperidin-3-yl)acetamide] it is 100 nM. In the case of `CC(=O)N[C@@H]1CCCN(C(=O)[C@@H](C)Oc2ccc3c(-c4ccccc4C)c[nH]c(=O)c3c2)C1` [Example 29, N-((R)-1-((R)-2-((1-oxo-4-(o-tolyl)-1,2-dihydroisoquinolin-7-yl)oxy)propanoyl)piperidin-3-yl)acetamide] it was 100 nM; in that of `Cc1ccccc1-c1c[nH]c(=O)c2cc(O[C@H](C)C(=O)N3CCC(NC(N)=O)CC3)ccc12` [Example 30, (R)-1-(1-(2-((1-oxo-4-(o-tolyl)-1,2-dihydroisoquinolin-7-yl)oxy)propanoyl)piperidin-4-yl)urea], 70 nM; in that of `Cc1ccccc1-c1c[nH]c(=O)c2cc(O[C@H](C)C(=O)N3CCC(N(C)C)CC3)ccc12` [Example 31, (R)-7-((1-(4-(dimethylamino)piperidin-1-yl)-1-oxopropan-2-yl)oxy)-4-(o-tolyl)isoquinolin-1(2H)-one], 300 nM.

For `Cc1ccccc1-c1c[nH]c(=O)c2cc(O[C@H](C)C(=O)N3CCC[C@H](N(C)C)C3)ccc12` [Example 32, 7-(((R)-1-((S)-3-(dimethylamino)piperidin-1-yl)-1-oxopropan-2-yl)oxy)-4-(o-tolyl)isoquinolin-1(2H)-one], the IC50 amounted to 200 nM.

As for `Cc1ccccc1-c1c[nH]c(=O)c2cc(O[C@H](C)C(=O)N3CCC[C@@H](N(C)C)C3)ccc12` [Example 33, 7-(((R)-1-((R)-3-(dimethylamino)piperidin-1-yl)-1-oxopropan-2-yl)oxy)-4-(o-tolyl)isoquinolin-1(2H)-one], the IC50 was determined as 300 nM. In the case of `Cc1ccccc1-c1c[nH]c(=O)c2cc(O[C@H](C)C(=O)N3CCCC(C4(C(=O)O)CC4)C3)ccc12` (stereo partly drawn) [Example 34, 1-(1-((R)-2-((1-oxo-4-(o-tolyl)-1,2-dihydroisoquinolin-7-yl)oxy)propanoyl)piperidin-3-yl)cyclopropane-1-carboxylic acid], the 50% inhibitory concentration (IC50) was 30 nM. On to `Cc1ccccc1-c1c[nH]c(=O)c2cc(O[C@H](C)C(=O)N3CCC[C@H](CC(N)=O)C3)ccc12` [Example 38, 2-((R)-1-((R)-2-((1-oxo-4-(o-tolyl)-1,2-dihydroisoquinolin-7-yl)oxy)propanoyl)piperidin-3-yl)acetamide], for which the IC50 came to 9 nM.

`Cc1ccccc1-c1c[nH]c(=O)c2cc(O[C@H](C)C(=O)N3CCC[C@@H](CC(N)=O)C3)ccc12` [Example 39, 2-((S)-1-((R)-2-((1-oxo-4-(o-tolyl)-1,2-dihydroisoquinolin-7-yl)oxy)propanoyl)piperidin-3-yl)acetamide]: the IC50 was determined as 40 nM.

On to `N#CCOc1ccc2c(-c3ccccc3CCO)c[nH]c(=O)c2c1` [Example 42, 2-((4-(2-(2-hydroxyethyl)phenyl)-1-oxo-1,2-dihydroisoquinolin-7-yl)oxy)acetonitrile], for which the IC50 came out at 300 nM. Consider `COCc1ccccc1-c1c[nH]c(=O)c2cc(OCC#N)ccc12` [Example 47, 2-((4-(2-(methoxymethyl)phenyl)-1-oxo-1,2-dihydroisoquinolin-7-yl)oxy)acetonitrile], for which the IC50 was 18000 nM.

For the compound `Cc1cccc(C#N)c1-c1c[nH]c(=O)c2cc(OCC#N)ccc12` [Example 48, 2-(7-(cyanomethoxy)-1-oxo-1,2-dihydroisoquinolin-4-yl)-3-methylbenzonitrile], the IC50 was 500 nM.

As for `N#CCOc1ccc2c(-c3ccccc3OC(F)(F)F)c[nH]c(=O)c2c1` [Example 49, 2-((1-oxo-4-(2-(trifluoromethoxy)phenyl)-1,2-dihydroisoquinolin-7-yl)oxy)acetonitrile], the IC50 is > 100000 nM. For `CC(=O)N1CCN(C[C@@H](C)Oc2ccc3c(-c4ccccc4C)c[nH]c(=O)c3c2)CC1` [Example 54, (R)-7-((1-(4-acetylpiperazin-1-yl)propan-2-yl)oxy)-4-(o-tolyl)isoquinolin-1(2H)-one], the IC50 was 4000 nM.
